Experimental data published in US20100282247A1, “TREATMENT OF PULMONARY DISORDERS WITH AEROSOLIZED MEDICAMENTS SUCH AS VANCOMYCIN” (Novartis AG, priority 2007, published 2010).

Key:
[1] = in vivo
Text: One or more embodiments of the invention comprise systems and method for delivering relatively high concentrations of medicament without undue precipitation of the medicament in the delivery system. The on-vent adapter with the pattern of aerosol generation is designed to allow up to 90% of aerosol enter the artificial airway and allow 45-80% of dose to reach aerosol to the lungs. Hand Held adapter delivers inhaled mass of 75-90% with 40-55% of dose reaching the lungs as aerosol (based on AMIK phase II Scintigraphy.) Initially in vitro testing was showing precipitation of Vancomycin in powder form on the inspiratory filter.

S. aureus = conditions: lowered by CLSI; cited from earlier work
[2] = aerosolized versus systemic vancomycin, n=10, high suspicion for MRSA respiratory infection; cited from earlier work
[3] = system: vancomycin susceptable S. aureas; conditions: estimated; cited from earlier work
[4] = system: vancomycin intermediate S. aureas; conditions: estimated; cited from earlier work
[5] = system: Gram-positive, pneumonia-causing bacteria; assay: Reference MIC in tracheal aspirates (TA); assay type: cell-based, Staph species; conditions: locally in TA
Description: The dose-response to aerosolized vancomycin, administered in accordance with one or more embodiments of devices, apparatus and/or methods of the present invention was evaluated, as was the ability to deliver a predefined target multiple of an MIC for Gram-positive bacteria causing pneumonia, including, Staph species, in the tracheal aspirates (TA). […] Thus the desired multiple is 128 μg/mL.

[6] = system: vancomycin resistant S. aureas; conditions: estimated; printed with "or more"; cited from earlier work
[7] = parenterally administered; cited from earlier work
gram-positive bacteria = conditions: P<=0.05, cited from earlier work

Structure (SMILES): NCC[C@H](O)C(=O)N[C@@H]1C[C@H](N)[C@@H](O[C@H]2O[C@H](CN)[C@@H](O)[C@H](O)[C@H]2O)[C@H](O)[C@H]1O[C@H]1O[C@H](CO)[C@@H](O)[C@H](N)[C@H]1O [AMIK]
- dose reaching the lungs as aerosol [1]: 40-55%
- inhaled mass [1]: 75-90%

Structure (SMILES): CN[C@H](CC(C)C)C(=O)N[C@H]1C(=O)N[C@@H](CC(N)=O)C(=O)N[C@H]2C(=O)N[C@H]3C(=O)N[C@H](C(=O)N[C@H](C(=O)O)c4cc(O)cc(O)c4-c4cc3ccc4O)[C@H](O)c3ccc(c(Cl)c3)Oc3cc2cc(c3O[C@@H]2O[C@H](CO)[C@@H](O)[C@H](O)[C@H]2O[C@H]2C[C@](C)(N)[C@H](O)[C@H](C)O2)Oc2ccc(cc2Cl)[C@H]1O [vancomycin]
- vancomycin breakpoint (S. aureus): 2 µg/mL
- sputum vancomycin concentrations [2]: significantly increases
- reference MIC [3]: 2 to 4 mg/L
- reference MIC [4]: 8 to 16 mg/L
- reference MIC value [5]: 32 mg/L
- reference MIC [6]: 16 to 32 mg/L
- levels in lung epithelial lining fluid as share of those seen in serum [7]: ~14%
- CDC-NNIS diagnostic criteria for ventilator-associated pneumonia (VAP) (gram-positive bacteria; aerosolized vancomycin (n=14) and/or gentamicin-sulfate, placebo 75.0% to 78.6%): 35.7% to 73.6%
- WBC at Day 14 (gram-positive bacteria; versus placebo): lower
- bacterial resistance (gram-positive bacteria; versus placebo): reduced
- clinical pulmonary infection score CPIS (gram-positive bacteria; versus placebo): reduced
- use of systemic antibiotics (gram-positive bacteria; versus placebo): reduced
- ventilator weaning (gram-positive bacteria; versus placebo): increased
